According to patent publication US9127303B2, “Method for detection of beta-D-glucuronidase activity in a sample” (Biosynth AG, priority 2011, dated 2015):

Key:
Acinetobacter baumanii = assay: Detection of microbial beta-D-glucuronidase in broth cultures in test tubes; format: cell-based; set-up: key: positive (pink colour); negative (yellow colour); conditions: 1 strain, NB, 0.1 mM, 37° C., 16 hours
Experimental: (§1) Resorufin-beta-D-glucuronic acid or Resorufin-beta-D-glucuronic acid methyl ester was added to test tubes containing 3 ml of Nutrient Broth (NB: 5 g/l peptone, 5 g/l NaCl, 2 g/l yeast extract, 1 g/l beef extract, pH 7.4) or Tryptone Bile Broth (TBB: 20 g/l tryptone, 1.5 g/l bile salts No. 3) at a concentration of 0.1 mM. Tubes were inoculated with cultures pregrown over night on NB and incubated at 37° C. for 16 hours. Tubes were scored visually for beta-D-glucuronidase activity as positive (pink colour) or negative (yellow colour). Both substrates gave the same results for all strains tested (Table 1), showing that the Resorufin-beta-D-glucuronic acid methyl ester can be used in place of the Resorufin-beta-D-glucuronic acid for detection of E. coli.

Aeromonas hydrophila = assay: as above; format: cell-based; set-up: key: positive (pink colour); negative (yellow colour); conditions: 1 strain, TBB, 0.1 mM, 37° C., 16 hours
Experimental: as §1

Bacillus cereus = assay: as above; format: cell-based; set-up: key: positive (pink colour); negative (yellow colour); conditions: 1 strain, NB, 0.1 mM, 37° C., 16 hours
Experimental: as §1

Citrobacter freundii = assay: as above; format: cell-based; set-up: key: positive (pink colour); negative (yellow colour); conditions: 1 strain, TBB, 0.1 mM, 37° C., 16 hours
Experimental: as §1

Enterobacter aerogenes = assay: as above; format: cell-based; set-up: key: positive (pink colour); negative (yellow colour); conditions: 1 strain, TBB, 0.1 mM, 37° C., 16 hours
Experimental: as §1

Enterobacter cloacae = assay: as above; format: cell-based; set-up: key: positive (pink colour); negative (yellow colour); conditions: 1 strain, NB, 0.1 mM, 37° C., 16 hours
Experimental: as §1

Enterococcus faecalis = assay: as above; format: cell-based; set-up: key: positive (pink colour); negative (yellow colour); conditions: 1 strain, TBB, 0.1 mM, 37° C., 16 hours
Experimental: as §1

Escherichia coli O157:H7 = assay: as above; format: cell-based; set-up: key: positive (pink colour); negative (yellow colour); conditions: Escherichia coli O157:H7, 2 strains, TBB, 0.1 mM, 37° C., 16 hours
Experimental: as §1

Escherichia coli = assay: as above; format: cell-based; set-up: key: positive (pink colour); negative (yellow colour); conditions: 19 strains, TBB, 0.1 mM, 37° C., 16 hours
Experimental: as §1

Hafnia alvei = assay: as above; format: cell-based; set-up: key: positive (pink colour); negative (yellow colour); conditions: 1 strain, NB, 0.1 mM, 37° C., 16 hours
Experimental: as §1

Klebsiella pneumoniae = assay: as above; format: cell-based; set-up: key: positive (pink colour); negative (yellow colour); conditions: 1 strain, TBB, 0.1 mM, 37° C., 16 hours
Experimental: as §1

Proteus vulgaris = assay: as above; format: cell-based; set-up: key: positive (pink colour); negative (yellow colour); conditions: 1 strain, NB, 0.1 mM, 37° C., 16 hours
Experimental: as §1

Pseudomonas aeruginosa = assay: as above; format: cell-based; set-up: key: positive (pink colour); negative (yellow colour); conditions: 1 strain, TBB, 0.1 mM, 37° C., 16 hours
Experimental: as §1

Salmonella Enteritidis = assay: as above; format: cell-based; set-up: key: positive (pink colour); negative (yellow colour); conditions: 1 strain, TBB, 0.1 mM, 37° C., 16 hours
Experimental: as §1

Salmonella Typhimurium = assay: as above; format: cell-based; set-up: key: positive (pink colour); negative (yellow colour); conditions: 1 strain, NB, 0.1 mM, 37° C., 16 hours
Experimental: as §1

Serratia marcescens = assay: as above; format: cell-based; set-up: key: positive (pink colour); negative (yellow colour); conditions: 1 strain, TBB, 0.1 mM, 37° C., 16 hours
Experimental: as §1

Staphylococcus aureus = assay: as above; format: cell-based; set-up: key: positive (pink colour); negative (yellow colour); conditions: 1 strain, NB, 0.1 mM, 37° C., 16 hours
Experimental: as §1

[1] = test system: Staphylococcus haemolyticus; assay: as above; format: cell-based; set-up: key: positive (pink colour); negative (yellow colour); conditions: 1 strain, NB, 0.1 mM, 37° C., 16 hours
Experimental: as §1

Vibrio parahaemolyticus = assay: as above; format: cell-based; set-up: key: positive (pink colour); negative (yellow colour); conditions: 1 strain, NB, 0.1 mM, 37° C., 16 hours
Experimental: as §1

Yersinia enterocolitica = assay: as above; format: cell-based; set-up: key: positive (pink colour); negative (yellow colour); conditions: 1 strain, NB, 0.1 mM, 37° C., 16 hours
Experimental: as §1

[2] = test system: beta-D-glucuronidase positive strains (Escherichia coli); assay: Detection of microbial beta-D-glucuronidase activity in broth cultures in microtiter plates; format: cell-based; conditions: NB, 0.1 mM, 37° C., 20 hours; for Fluorescence (excitation 570 nm, emission 600 nm) over time: about 10 cfu
Experimental: (§2) Fluorescence in arbitrary units (RFU, relative fluorescence units) is plotted vs. time (h).
(§3) Wells of a microtiter plate were filled with Nutrient Broth (NB: 5 g/l peptone, 5 g/l NaCl, 2 g/l yeast extract, 1 g/l beef extract, pH 7.4) containing Resorufin-beta-D-glucuronic acid or Resorufin-beta-D-glucuronic acid methyl ester at concentrations of 0.1 mM. The wells were inoculated with about 10 cfu of cultures pregrown over night on NB and incubated at 37° C. for 20 hours. Fluorescence was measured every 20 minutes at an excitation wavelength of 570 nm and an emission wavelength of 600 nm (FIG. 1).

[3] = test system: beta-D-glucuronidase negative strains; assay: as above; format: cell-based, Citrobacter freundii, Salmonella enteritidis; conditions: NB, 0.1 mM, 37° C., 20 hours
Experimental: as §2, §3

[4] = target: beta-D-glucuronidase (type VII-A from E. coli) (Escherichia coli, UniProt P05804); assay: Enzymatic assay with purified beta-D-glucuronidase; format: biochemical; conditions: 0.1 mM, pH 6.8, 37° C., 1 hour
Experimental: (§4) Resorufin-beta-D-glucuronic acid or Resorufin-beta-D-glucuronic acid methyl ester was incubated in presence of glucuronidase, esterase, both enzymes or without enzyme. Measurements were done in microtiter plates at 37° C. in a Spectramax M5 platereader (λex=570 nm, λem=600 nm). Fluorescence in arbitrary units (RFU, relative fluorescence units) is plotted vs. time (min).
(§5) Wells of a microtiter plate were filled with buffer (35 mM potassium phosphate, 4.7 mg/ml bovine serum albumin, pH 6.8) containing Resorufin-beta-D-glucuronic acid or Resorufin-beta-D-glucuronic acid methyl ester at concentrations of 0.1 mM. To the wells were added either a) 0.3 unit beta-D-glucuronidase (type VII-A from E. coli) or b) 10 units esterase (from porcine liver) or c) 0.3 unit beta-D-glucuronidase and 10 units esterase or d) no enzyme. The microtiter plate was incubated at 37° C. for 1 hour. Fluorescence was measured every 1.5 minutes at an excitation wavelength of 570 nm and an emission wavelength of 600 nm (FIG. 2).

[5] = test system: esterase (from porcine liver); assay: Enzymatic assay with esterase only; format: biochemical; conditions: 10 units esterase only, 0.1 mM, pH 6.8, 37° C., 1 hour
Experimental: as §4, §5

E. coli culture = assay: Detection of microbial beta-D-glucuronidase in preincubated medium; format: cell-based; conditions: NB with 0.2 mM, preincubated 21 h, 3.5 h, 0 h at 37° C., E. coli about 10^8 cfu/ml
Experimental: The media with the Resorufin-beta-D-glucuronic acid methyl ester were preincubated for different time periods. Measurements were done in microtiter plates at 37° C. in a Spectramax M5 platereader (λex=570 nm, λem=600 nm). Fluorescence in arbitrary units (RFU, relative fluorescence units) is plotted vs. time (min).
(§6) Wells of a microtiter plate were filled with 100 μl Nutrient Broth (NB: 5 g/l peptone, 5 g/l NaCl, 2 g/l yeast extract, 1 g/l beef extract, pH 7.4) containing Resorufin-beta-D-glucuronic acid or Resorufin-beta-D-glucuronic acid methyl ester at concentrations of 0.2 mM. The wells were incubated for different times (21 h, 3.5 h, 0 h) at 37° C. After incubation, 100 μl of an E. coli culture pregrown over night on NB was added (about 10^8 cfu/ml). Fluorescence was measured every 1.5 minutes at an excitation wavelength of 570 nm and an emission wavelength of 600 nm (FIG. 3). The longer the preincubation time of the medium, the more Resorufin-beta-D-glucuronic acid originated from the Resorufin-beta-D-glucuronic acid methyl ester through hydrolysis.

[6] = Hydrolysis of the methyl ester in Nutrient Broth medium; format: physicochemical; conditions: pH 7.4, 37° C.
Experimental: as §6

[7] = 0.3 unit beta-D-glucuronidase and 10 units esterase
[8] = 0.3 unit beta-D-glucuronidase without esterase

Chain of beta-D-glucuronidase (type VII-A from E. coli) (P05804 whole entry): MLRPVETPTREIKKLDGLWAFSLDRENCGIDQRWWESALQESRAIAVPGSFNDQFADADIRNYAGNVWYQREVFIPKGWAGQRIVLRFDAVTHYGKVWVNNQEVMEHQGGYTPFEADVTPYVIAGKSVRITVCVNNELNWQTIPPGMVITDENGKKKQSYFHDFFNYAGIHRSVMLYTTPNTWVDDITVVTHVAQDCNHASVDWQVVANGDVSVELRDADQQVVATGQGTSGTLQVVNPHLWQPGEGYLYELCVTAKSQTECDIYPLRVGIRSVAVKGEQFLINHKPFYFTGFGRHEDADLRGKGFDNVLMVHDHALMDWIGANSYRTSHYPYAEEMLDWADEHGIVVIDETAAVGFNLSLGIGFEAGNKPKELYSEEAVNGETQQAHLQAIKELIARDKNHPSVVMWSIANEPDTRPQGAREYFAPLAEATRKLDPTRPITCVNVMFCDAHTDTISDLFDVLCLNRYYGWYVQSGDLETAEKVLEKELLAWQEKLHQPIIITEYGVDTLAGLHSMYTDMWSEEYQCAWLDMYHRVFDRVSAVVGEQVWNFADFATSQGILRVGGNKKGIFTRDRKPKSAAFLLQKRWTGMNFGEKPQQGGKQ

SMILES | Result, beta-D-glucuronidase activity scored visually (Acinetobacter baumanii) | Result, beta-D-glucuronidase activity scored visually (Aeromonas hydrophila) | Result, beta-D-glucuronidase activity scored visually (Bacillus cereus) | Result, beta-D-glucuronidase activity scored visually (Citrobacter freundii) | Result, beta-D-glucuronidase activity scored visually (Enterobacter aerogenes) | Result, beta-D-glucuronidase activity scored visually (Enterobacter cloacae) | Result, beta-D-glucuronidase activity scored visually (Enterococcus faecalis) | Result, beta-D-glucuronidase activity scored visually (Escherichia coli O157:H7) | Result, beta-D-glucuronidase activity scored visually (Escherichia coli) | Result, beta-D-glucuronidase activity scored visually (Hafnia alvei) | Result, beta-D-glucuronidase activity scored visually (Klebsiella pneumoniae) | Result, beta-D-glucuronidase activity scored visually (Proteus vulgaris) | Result, beta-D-glucuronidase activity scored visually (Pseudomonas aeruginosa) | Result, beta-D-glucuronidase activity scored visually (Salmonella Enteritidis) | Result, beta-D-glucuronidase activity scored visually (Salmonella Typhimurium) | Result, beta-D-glucuronidase activity scored visually (Serratia marcescens) | Result, beta-D-glucuronidase activity scored visually (Staphylococcus aureus) | Result, beta-D-glucuronidase activity scored visually [1] | Result, beta-D-glucuronidase activity scored visually (Vibrio parahaemolyticus) | Result, beta-D-glucuronidase activity scored visually (Yersinia enterocolitica) | other results
COC(=O)[C@H]1O[C@@H](Oc2ccc3nc4ccc(=O)cc-4oc3c2)[C@H](O)[C@@H](O)[C@@H]1O [Resorufin-beta-D-glucuronic acid methyl ester] | negative | negative | negative | negative | negative | negative | negative | negative | positive | negative | negative | negative | negative | negative | negative | negative | negative | negative | negative | negative | Speed of increase in fluorescence compared with Resorufin-beta-D-glucuronic acid [2]: a little slower; Fluorescence (excitation 570 nm, emission 600 nm) over time [2]: increase in fluorescence; Fluorescence (excitation 570 nm, emission 600 nm) over time [3]: only low background signal; Fluorescence (excitation 570 nm, emission 600 nm) over time [4, 7]: fast increase of fluorescence; Fluorescence (excitation 570 nm, emission 600 nm) over time [4, 8]: only a slow increase of fluorescence; Fluorescence (excitation 570 nm, emission 600 nm) over time [5]: low background signal; Fluorescence signal after adding E. coli culture, compared with Resorufin-beta-D-glucuronic acid medium (E. coli culture): gets closer to the signal from media originally containing the Resorufin-beta-D-glucuronic acid with longer preincubation time; Hydrolysis of the methyl ester to Resorufin-beta-D-glucuronic acid in medium [6]: surprisingly fast
O=C([O-])C1OC(Oc2ccc3nc4ccc(=O)cc-4oc3c2)C(O)C(O)C1O.[Na+] [Resorufin-beta-D-glucuronic acid, reference compound] | negative | negative | negative | negative | negative | negative | negative | negative | positive | negative | negative | negative | negative | negative | negative | negative | negative | negative | negative | negative | Fluorescence (excitation 570 nm, emission 600 nm) over time [2]: increase in fluorescence; Fluorescence (excitation 570 nm, emission 600 nm) over time [3]: only low background signal; Fluorescence (excitation 570 nm, emission 600 nm) over time [4, 7]: fast increase of fluorescence; Fluorescence (excitation 570 nm, emission 600 nm) over time [4, 8]: fast increase of fluorescence; Fluorescence (excitation 570 nm, emission 600 nm) over time [5]: low background signal
